# Measurements published in patent US6476019B1, “Spirocyclic ligands for sigma receptors, and libraries and methods of use thereof” (Sepracor Inc., priority 1999, dated 2002).
# Where two headings read alike, the source gives them in different places.
# Key:
# [1] = biological target: T1, sigma-1 receptor (guinea pig brain) (Cavia porcellus, UniProt Q60492); experiment: Antagonism of haloperidol binding to guinea pig sigma-1 receptors; settings: sigma-1, guinea pig brain; for % Inhibition: test concentration not given
# T1 construct: from tissue; host or cells: guinea pig brain
# T1 sequence (Q60492 whole entry): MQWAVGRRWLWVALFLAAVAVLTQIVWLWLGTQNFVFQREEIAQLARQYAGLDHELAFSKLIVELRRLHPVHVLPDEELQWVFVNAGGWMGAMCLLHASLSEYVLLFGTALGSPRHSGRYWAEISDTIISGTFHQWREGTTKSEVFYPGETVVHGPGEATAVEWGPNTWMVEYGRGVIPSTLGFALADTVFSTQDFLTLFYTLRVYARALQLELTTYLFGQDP
# [2] = biological target: human sigma receptor (Homo sapiens, UniProt Q99720); experiment: Human sigma receptor assay; type: binding
# Chain of human sigma receptor (Q99720 whole entry): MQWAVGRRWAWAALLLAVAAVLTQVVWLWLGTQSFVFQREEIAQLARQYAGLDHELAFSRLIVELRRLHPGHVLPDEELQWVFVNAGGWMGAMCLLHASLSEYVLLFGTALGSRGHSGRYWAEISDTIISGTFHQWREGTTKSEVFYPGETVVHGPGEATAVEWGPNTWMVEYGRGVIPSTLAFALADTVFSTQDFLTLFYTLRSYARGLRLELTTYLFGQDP
# Experimental: (§1) The ability of test compounds to displace sigma ligands in vitro was determined by the methods of de Costa et al. (FEBS Lett. 251:53 (1989)) and De Haven-Hudkine et al. (Eur. J. Pharmacol. 227:372 (1992)) having guinea pig as a receptor source. Whereas, the methods of Gamapatju et al. (J. Pharm.&Exp. 289:251 (1999)) were utilized for human sigma receptors.
# [3] = biological target: T2, guinea pig sigma receptor (Cavia porcellus, UniProt Q60492); experiment: Guinea pig sigma receptor assay; type: binding
# T2 construct: having guinea pig as a receptor source; from tissue; host or cells: guinea pig
# T2 sequence (Q60492 whole entry): as the sequence (Q60492 whole entry) above
# Experimental: as §1
# [4] = system: Male Wistar rats; experiment: MK-801-Induced Psychosis Model; type: in vivo, rat; settings: rat, 0.25 mg/kg i.p.; MK-801 0.3 mg/kg i.p.
# Description: The non-competitive NMDA receptor antagonist MK-801 induces stereotypies and hyperactivity in rodents (1) by interacting with the NMDA receptor-associated ion channel. Phencyclidine, which also interferes with the NMDA receptor, produces psychotic effects in humans similar in many respects to schizophrenia. […] Therefore the MK-801-induced activity and stereotypies in rats may represent an appropriate animal model to test the potential efficacy of antipsychotic drugs.
# Male Wistar rats (Iffa Crédo, St Germain/l'Arbresle, France), weight 250-300 g were housed 2 per cage on a 12 h/12 h light dark cycle (lights on at 7.00 a.m.) at a room temperature of 21±2° C. for a minimum of 5 days before testing. All animals had access to commercial food and tap water ad libitum.
# On the day of the experiment, rats were treated with either reference drug vehicle, the reference drugs haloperidol or clozapine the test compound vehicle or test compounds. After administration, the rats were returned to their home cages for 15 minutes. […] The remaining rats treated with placebo received a second injection of vehicle. The standard injection volume was 2.0 ml/kg. After 10 minutes in the home cages, rats were transferred to the test box (Plexiglas, 29×12×12 cm), 5 minutes before the assessment for accomodation. The test box was cleaned with 70% ethanol before each assessment. Stereotypies, defined as wall-contacts with the snout, and locomotion, defined as turn-rounds of 180°, were assessed during 5 minute periods.
# [5] = read-out: IC50 Against Human Sigma Receptor
# [6] = read-out: IC50 Against Guinea Pig Sigma Receptor
Compound,% Inhibition [1] [%],IC50 [1] [nM],also measured
"CC(=O)N1CCC2(CCC(=O)c3ccccc3N2)CC1 [Compound 10, 1′-Acetyl-3,4-dihydrospiro[5H-1-benzazepine-2(1H), 4′-piperidin]-5-one]",>50,,
"O=C1CCC2(CCN(CC(O)c3ccccc3)CC2)Nc2ccccc21 (stereo not shown) [Compound 45, 1′-(2-hydroxy-phenethyl)-3,4-dihydrospiro[5H-1-benzazepine-2(1H)-4′-piperidin]-5-one]",,,"IC50 [2, 5]: < 100 nM; IC50 [3, 6]: < 10 nM"
"O=C1CCC2(CCN(Cc3ncc[nH]3)CC2)Nc2ccccc21 [Compound 30, 1′-(2-methyl-imidazole)-3,4-dihydrospiro[5H-1-benzazepine-2(1H)-4′-piperidin]-5-one]",>50,< 1000,
"O=C1CCC2(CCN(CC3CO3)CC2)Nc2ccccc21 (stereo not shown) [Compound 28, 1′-(epoxymethyl)-3,4-dihydrospiro[5H-1-benzazepine-2(1H)-4′-piperidin]-5-one]",>50,,
"CCN(CC)C(=O)N1CCC2(CCC(=O)c3ccccc3N2)CC1 [Compound 15, 1′-(Diethylcarbamyl)-3,4-dihydrospiro[5H-1-benzazepine-2(1H)-4′-piperidin]-5-one]",<50,> 1000,
"1′-(iso-nicotinyl)-3,4-dihydrospiro[5H-1-benzazepine-2(1H)-4′-piperidin]-5-one [Compound 20]",<50,> 1000,
"C=C1c2ccccc2NC12CCN(Cc1ccc(F)cc1)CC2 [Compound 53, 1-Fluorobenzyl-spiro[(3-methylene)-indole-2,4′-piperidine]]",,,IC50 [2]: > 1000 nM; IC50 [3]: < 100 nM
"CC(c1ccc(F)cc1)N1CCC2(CCC(=O)c3ccccc3N2)CC1 (stereo not shown) [Compound 46, 1′-(1-Methyl-4-fluorobenzyl)-3,4-dihydrospiro[5H-1-benzazepine-2(1H)-4′-piperidin]-5-one]",,,"IC50 [2, 5]: < 100 nM; IC50 [3, 6]: < 10 nM"
"CC(C)(C)CCN1CCC2(CCC(=O)c3ccccc3N2)CC1 [Compound 27, 1′-(3,3-dimethylbutane)-3,4-dihydrospiro[5H-1-benzazepine-2(1H)-4′-piperidin]-5-one]",>50,,
Fc1ccc(CN2CCC3(CCCc4ccccc4N3)CC2)cc1 [Compound 43],,,"IC50 [2, 5]: < 1000 nM"
"O=C1C=CC2(CCN(Cc3ccc(F)cc3)CC2)Nc2ccccc21 [Compound 34, 1′-(4-Fluorobenzyl)-spiro[5-1-benzazepine-2(1H)-4′-piperidin]-5-one]",>50,< 100,"IC50 [3, 6]: < 100 nM"
"N#Cc1ccc(CN2CCC3(CCC(=O)c4ccccc4N3)CC2)cc1 [Compound 24, 1′-(4-cyanobenzyl)-3,4-dihydrospiro[5H-1-benzazepine-2(1H), 4′-piperidin]-5-one]",>50,,
"O=C1CCC2(CCN(C(=O)c3ccc4ccccc4c3)CC2)Nc2ccccc21 [Compound 16, 1′-(2-Naphthoyl)-3,4-dihydrospiro[5H-1-benzazepine-2(1H)-4′-piperidin]-5-one]",<50,> 1000,
"O=C1CCC2(CCN(C(=O)N3CCOCC3)CC2)Nc2ccccc21 [Compound 13, 1′-(4-morpholinecarbonyl)-3,4-dihydrospiro[5H-1-benzazepine-2(1H)-4′-piperidin]-5-one]",<50,> 1000,
"CC(C)CCN1CCC2(CCC(=O)c3ccccc3N2)CC1 [Compound 29, 1′-(3-methylbutane)-3,4-dihydrospiro[5H-1-benzazepine-2(1H)-4′-piperidin]-5-one]",>50,< 100,
"C=C(C)CCN1CCC2(CCC(=O)c3ccccc3N2)CC1 [Compound 23, 1′-(3-methyl-3-butene)-3,4-dihydrospiro[5H-1-benzazepine-2(1H)-4′-piperidin]-5-one]",>50,,
"C=CCN1CCC2(CCC(=O)c3ccccc3N2)CC1 [Compound 26, 1′-(allyl)-3,4-dihydrospiro[5H-1-benzazepine-2(1H)-4′-piperidin]-5-one]",>50,,
"NC1CCC2(CCN(Cc3ccc(F)cc3)CC2)Nc2ccccc21 (racemic) [Compound 36, 1′-(4-fluorobenzyl)-3,4-dihydrospiro[5H-1-benzazepine-2(1H)-4′-piperidin]-5-amine]",,,"IC50 [2, 5]: < 100 nM"
O=C1CCC2(CCN(CCC3CCCCC3)CC2)Nc2ccccc21 [Compound 25],>50,,
CC(=O)NC1CCC2(CCN(Cc3ccc(F)cc3)CC2)Nc2ccccc21 (racemic) [Compound 39],,,"IC50 [2, 5]: < 1000 nM; IC50 [3, 6]: < 10 nM"
"COC(=O)c1ccc(CN2CCC3(CCC(=O)c4ccccc4N3)CC2)cc1 [Compound 22, 1′-(Methyl-(4-methylbenzoate))-3,4-dihydrospiro[5H-1-benzazepine-2(1H), 4′-piperidin]-5-one]",>50,< 1000,
"O=C1CCC2(CCN(Cc3ccc(OC(F)(F)F)cc3)CC2)Nc2ccccc21 [Compound 18, 1′-(4-Trifluoromethoxybenzyl)-3,4-dihydrospiro[5H-1-benzazepine-2(1H), 4′-piperidin]-5-one]",>50,,
"O=C1CCC2(CCN(C(=O)c3ccc(Cl)c(Cl)c3)CC2)Nc2ccccc21 [Compound 12, 1′-(3,4-Dichlorobenzoyl)-3,4-dihydrospiro[5H-1-benzazepine-2(1H)-4′-piperidin]-5-one]",<50,> 1000,
"O=C1CCC2(CCN(S(=O)(=O)c3ccccc3)CC2)Nc2ccccc21 [Compound 17, 1′-(Benzenesulfonyl)-3,4-dihydrospiro[5H-1-benzazepine-2(1H)-4′-piperidin]-5-one]",<50,> 1000,
"CC(C)(C)c1ccc(C(=O)N2CCC3(CCC(=O)c4ccccc4N3)CC2)cc1 [Compound 14, 1′-(4-tert-Butylbenzoyl)-3,4-dihydrospiro[5H-1-benzazepine-2(1H)-4′-piperidin]-5-one]",<50,> 1000,
"O=C(CCCN1CCC(O)(c2ccc(Cl)cc2)CC1)c1ccc(F)cc1 [haloperidol, reference compound]",,,MK-801-induced locomotion [4]: significant reduction; MK-801-induced stereotypies [4]: significant reduction
